{"source": "patent US20230103631A1", "about": "“PEPTIDES AS SELECTIVE GIP RECEPTOR AGONISTS” (Sanofi, priority 2020, published 2023)", "format_in_all_cases": "in vivo", "key": {"[1]": {"assay": "Pharmacokinetic evaluation in minipigs", "settings": "female, Gottingen, minipig, plasma"}, "[2]": {"assay": "Pharmacokinetic evaluation in mice", "settings": "female, C57Bl/6, mouse, plasma", "experimental": "(§1) Compounds were administered in a suitable buffer system, e.g. PBS buffer solution at pH7.4 or DPBS solution at concentrations of 0.05, 0.1, 0.5 or 1 mg/ml depending on dose, species and administration volume.\nFemale C57Bl/6 mice were dosed 0.25 mg/kg, 0.5 mg/kg or 1 mg/kg intravenously (i.v.) or subcutaneously (s.c.). The mice were sacrificed, and blood samples were collected after 0.08, 0.25, 0.5, 1, 2, 4, 8, 24, 32, and 48 h post i.v. application and 0.25, 0.5, 1, 2, 4, 8, 24, 32, and 48 h post s.c. application, respectively. Plasma samples were analyzed after protein precipitation via liquid chromatography mass spectrometry (LC/MS). PK parameters and half-life were calculated using Phoenix-WinNonlin 8.1 using a non-compartmental model and linear trapezoidal interpolation calculation.\n(§2) Pharmacokinetic profiles were determined as described in Methods."}, "C57Bl/6 mice": {"test_system": "C57Bl/6 mice", "assay": "Intraperitoneal glucose tolerance test (ipGTT) after s.c. treatment", "settings": "for Incremental blood glucose concentration AUCi / Blood glucose concentration AUC: mean ± SEM; for Incremental blood glucose concentration AUCi: vehicle +4.93 ± 0.324; for Blood glucose concentration AUC: vehicle +22.15 ± 0.662", "experimental": "Healthy, normoglycemic male C57Bl/6NCrl mice were ordered in an age of 9-10 weeks with an approximate body weight (BW) of 24-26 g at Charles River Laboratories Deutschland GmbH, 97633 Sulzfeld, Germany. Mice were shipped grouped housed (N=4 per cage), acclimatized for one week and remained grouped housed throughout the entire study. Mice were housed under vivarium conditions that included a 12 h light/dark cycle (light phase 06:00 AM-06:00 PM), mean room temperature of 22±2° C. and a relative mean humidity of 55±10%. All animals had free access to food (Ssniff R/M-H diet) and water prior to study start.\nThe primary objective of the study was to investigate the compound-induced lowering of the blood glucose excursion and improvement of glucose tolerance in a mouse ipGTT setting and therefore the primary parameters included blood glucose, delta blood glucose (normalized to the time point just prior to the i.p. glucose challenge, t=0 h) and their respective calculated area under curve (AUC) values. The study was performed as an acute, single dosing study with 6 groups and the male animals were randomly divided to groups of 7-8 mice per group. Dose-dependent pharmacodynamic blood glucose lowering efficacy of the GIPR agonist was analyzed with s.c. injections 6 h before the i.p. glucose load in the dose range from 3 up to 100 nmol/kg and compared to the vehicle group as well as the semaglutide positive control at a dose of 10 nmol/kg.\nIn more detail, mice were fed overnight and on the following morning brought to the lab with food removed but ad libitum access to water. Blood samplings (5 μl) were performed at: −6.5, −0.5, 0, 0.17, 0.5, 1, 1.5, 2 and 3 h before and after the glucose bolus of 1 g glucose per kg BW i.p. given at time point t=0 h. On time point t=0.17 h an additional K-EDTA plasma sample from 60-80 μl blood was taken for plasma insulin analysis. Blood was withdrawn from the tip of the tail. The GIPR agonist and semaglutide were dissolved in 10 mM phosphate buffer pH 7.4 with 2.3% glycerol and 0.01% polysorbat 20 (vehicle) and s.c. treatment was performed −6 h before the glucose load (t=0 h) using an injection volume of 5 ml/kg. The injection solutions were freshly prepared prior to the experiment using sterile filtered vehicle solution.\nBlood glucose was determined enzymatically (Gluco-quant® Glucose/HK kit on Roche/Hitachi 912). Plasma insulin was determined using a mouse/rat insulin sandwich immunoassay kit from Meso Scale Discovery.\nAll data were collected using Microsoft Excel. None of the data were collected online. The results are expressed as means±standard error of the mean (SEM). As primary study parameters, blood glucose, baseline (time point t=0 h) subtracted delta blood glucose and their respective calculated area under curve (AUC) values were determined. The respective AUC data were calculated using the trapezoid rule for the time period t=0 h until t=2 h.\nThe statistical analysis of the ipGTT blood glucose excursion data response following subcutaneous compound or vehicle treatment was performed on the calculated AUC values of blood glucose raw data as well as the calculated AUC values for baseline subtracted delta blood glucose data. In a first step the Levene's test was used to test for equality of variances between groups. Where Levene's test was significant (p s 0.05), a rank transformation of the calculated AUC data was applied to stabilize the variances before ANOVA analysis was conducted. Where Levene's test was not significant (p>0.05) ANOVA was conducted without prior rank transformation. In a second step a One-way ANOVA analysis for factor treatment followed by Dunnett's multiple comparisons test vs. vehicle group was used to test for statistical differences. Different levels of significance were defined as *=p<0.05, **=p<0.001, ***=p<0.0001. All analyses were performed using SAS (version 9.4) under Linux via the interface software EverSt@t V6.1. […]"}, "[3]": {"assay": "Pharmacokinetic evaluation in monkeys", "settings": "male, cynomolgus monkey, plasma", "experimental": "as §1\nMale cynomolgus monkeys were dosed 0.1 mg/kg intravenously (i.v.) or subcutaneously (s.c.). Blood samples were collected after 0.083, 0.25, 0.5, 1, 2, 4, 8, 24, 32, 48, and 72 h post i.v. application and 0.5, 1, 2, 4, 8, 24, 48, 72, and 96 h post s.c. application, respectively. Plasma samples were analyzed after protein precipitation via liquid chromatography mass spectrometry (LC/MS). PK parameters and half-life were calculated using Phoenix-WinNonlin 8.1 using a non-compartmental model and linear trapezoidal interpolation calculation.\nas §2"}, "[4]": {"settings": "3 nmol/kg s.c. 6 h before i.p. glucose load"}, "[5]": {"settings": "10 nmol/kg s.c. 6 h before i.p. glucose load"}, "[6]": {"settings": "30 nmol/kg s.c. 6 h before i.p. glucose load"}, "[7]": {"settings": "100 nmol/kg s.c. 6 h before i.p. glucose load"}}, "note": "*1 amine or outer side, *2 acyl side, *3 side chain or, on linkers, in order; H or OH if unused. Where a SMILES comes first, the peptide text is derived from it. Side-chain parts run from the residue outwards. [ ]: non-standard residue; d: D form. The star is where a group is joined. C18 diacid = O=C(O)CCCCCCCCCCCCCCCCC(=O)*; γGlu = O=C(O)[C@H](CCC(=O)[*:2])N[*:1]; AEEA = NCCOCCOCC(=O)O; Aib = CC(C)(N)C(=O)O"}
{"smiles": "CC[C@H](C)[C@H](NC(=O)[C@H](Cc1ccccc1)NC(=O)[C@H](CCC(=O)O)NC(=O)[C@H](CCC(=O)O)NC(=O)[C@H](CCC(N)=O)NC(=O)[C@H](Cc1c[nH]cn1)NC(=O)[C@@H](NC(=O)[C@H](CCCNC(=N)N)NC(=O)[C@H](CC(=O)O)NC(=O)[C@H](CCCCNC(=O)COCCOCCNC(=O)COCCOCCNC(=O)CC[C@H](NC(=O)CCCCCCCCCCCCCCCCC(=O)O)C(=O)O)NC(=O)C(C)(C)NC(=O)[C@@H](NC(=O)[C@H](CO)NC(=O)[C@H](CC(C)C)NC(=O)[C@H](CC(=O)O)NC(=O)[C@H](CO)NC(=O)[C@@H](NC(=O)[C@H](Cc1ccccc1)NC(=O)[C@@H](NC(=O)CNC(=O)[C@H](CCC(=O)O)NC(=O)C(C)(C)NC(=O)[C@@H](N)Cc1ccc(O)cc1)[C@@H](C)O)[C@@H](C)CC)[C@@H](C)CC)[C@@H](C)CC)C(=O)N[C@@H](CCC(=O)O)C(=O)N[C@@H](Cc1c[nH]c2ccccc12)C(=O)N[C@@H](CC(C)C)C(=O)N[C@@H](CC(C)C)C(=O)N[C@@H](C)C(=O)N[C@@H](CCC(N)=O)C(=O)NCC(=O)N1CCC[C@H]1C(=O)N[C@@H](CO)C(=O)N[C@@H](CO)C(=O)NCC(=O)N[C@@H](C)C(=O)N1CCC[C@H]1C(=O)N1CCC[C@H]1C(=O)N1CCC[C@H]1C(=O)N[C@@H](CO)C(N)=O", "note": "[SEQ ID NO: 9, H2N-Y-Aib-E-G-T-F-I-S-D-I-S-I-Aib-K[{AEEA}2-gGlu-C18OH]-DRIHQEEFIEWILAQGPSSGAPPPS-NH2] (H-Y[Aib]EGTFISDLSI[Aib]K([AEEA-AEEA-γGlu-C18 diacid])DRIHQEEFIEWLLAQGPSSGAPPPS-NH2)", "values": [{"measurement": "AUC(0-t)", "setting": "[1]; iv, 0.05 mg/kg i.v.", "value": 177, "unit": "µg·h/mL"}, {"measurement": "Cmax", "setting": "[1]; iv, 0.05 mg/kg i.v.", "value": 5530, "unit": "ng/mL"}, {"measurement": "half-life", "setting": "[1]; iv, 0.05 mg/kg i.v.", "value": 75.8, "unit": "h"}, {"measurement": "clearance", "setting": "[1]; iv, 0.05 mg/kg i.v., read-out: CI (converted)", "value": 3.84, "unit": "mL/day/kg"}, {"measurement": "AUC(0-t)", "setting": "[1]; sc, 0.1 mg/kg s.c.", "value": 228, "unit": "µg·h/mL"}, {"measurement": "Cmax", "setting": "[1]; sc, 0.1 mg/kg s.c.", "value": 3080, "unit": "ng/mL"}, {"measurement": "bioavailability", "setting": "[1]; sc, 0.1 mg/kg s.c.", "value": 64, "unit": "%"}, {"measurement": "AUC(0-t)", "setting": "[2]; iv, 0.25 mg/kg i.v.", "value": 25.7, "unit": "µg·h/mL"}, {"measurement": "Cmax", "setting": "[2]; iv, 0.25 mg/kg i.v.", "value": 3920, "unit": "ng/mL"}, {"measurement": "half-life", "setting": "[2]; iv, 0.25 mg/kg i.v.", "value": 8, "unit": "h"}, {"measurement": "clearance", "setting": "[2]; iv, 0.25 mg/kg i.v., read-out: CI (converted)", "value": 230, "unit": "mL/day/kg"}, {"measurement": "AUC(0-t)", "setting": "[2]; sc, 0.5 mg/kg s.c.", "value": 42.2, "unit": "µg·h/mL"}, {"measurement": "Cmax", "setting": "[2]; sc, 0.5 mg/kg s.c.", "value": 2190, "unit": "ng/mL"}, {"measurement": "bioavailability", "setting": "[2]; sc, 0.5 mg/kg s.c.", "value": 82, "unit": "%"}, {"measurement": "half-life", "setting": "[2]; sc, 0.5 mg/kg s.c.", "value": 7.3, "unit": "h"}, {"measurement": "Incremental blood glucose concentration AUCi", "setting": "C57Bl/6 mice; [4]", "value": "+3.41 ± 0.520 mmol/L* 0-2 h"}, {"measurement": "Blood glucose concentration AUC", "setting": "C57Bl/6 mice; [4]", "value": "+21.07 ± 0.544 mmol/L* 0-2 h"}, {"measurement": "Incremental blood glucose concentration AUCi", "setting": "C57Bl/6 mice; [5]", "value": "+3.33 ± 0.210 mmol/L* 0-2 h"}, {"measurement": "Blood glucose concentration AUC", "setting": "C57Bl/6 mice; [5]", "value": "+19.28 ± 0.518 mmol/L* 0-2 h"}, {"measurement": "Incremental blood glucose concentration AUCi", "setting": "C57Bl/6 mice; [6]", "value": "+2.76 ± 0.268 mmol/L* 0-2 h"}, {"measurement": "Blood glucose concentration AUC", "setting": "C57Bl/6 mice; [6]", "value": "+18.20 ± 0.662 mmol/L* 0-2 h"}, {"measurement": "Incremental blood glucose concentration AUCi", "setting": "C57Bl/6 mice; [7]", "value": "+1.90 ± 0.158 mmol/L* 0-2 h"}, {"measurement": "Blood glucose concentration AUC", "setting": "C57Bl/6 mice; [7]", "value": "+14.81 ± 0.533 mmol/L* 0-2 h"}, {"measurement": "i.p. glucose tolerance compared to the vehicle group", "setting": "C57Bl/6 mice; single s.c. dose 3-100 nmol/kg, ipGTT in C57Bl/6 mice", "value": "significant and dose-dependent improvement"}, {"measurement": "minimal effective dose (improvement of i.p. glucose tolerance)", "setting": "C57Bl/6 mice; single s.c. dose, ipGTT in C57Bl/6 mice", "value": "3 to 10", "unit": "nmol/kg"}, {"measurement": "AUC(0-t)", "setting": "[3]; iv, 0.1 mg/kg i.v.", "value": 149, "unit": "µg·h/mL"}, {"measurement": "Cmax", "setting": "[3]; iv, 0.1 mg/kg i.v.", "value": 6740, "unit": "ng/mL"}, {"measurement": "half-life", "setting": "[3]; iv, 0.1 mg/kg i.v.", "value": 51.4, "unit": "h"}, {"measurement": "clearance", "setting": "[3]; iv, 0.1 mg/kg i.v., read-out: CI (converted)", "value": 10.7, "unit": "mL/day/kg"}, {"measurement": "AUC(0-t)", "setting": "[3]; sc, 0.1 mg/kg s.c.", "value": 122, "unit": "µg·h/mL"}, {"measurement": "Cmax", "setting": "[3]; sc, 0.1 mg/kg s.c.", "value": 1800, "unit": "ng/mL"}, {"measurement": "bioavailability", "setting": "[3]; sc, 0.1 mg/kg s.c.", "value": 83, "unit": "%"}, {"measurement": "half-life", "setting": "[3]; sc, 0.1 mg/kg s.c.", "value": 58.4, "unit": "h"}]}
